System: 997537-175-T-J1-PDC complex spheroid viability
Experiment: Anticancer human tumor 997537-175-T-J1-PDC patient-derived colon adenocarcinoma cell line growth inhibition [GQUAD]
Conditions: for IC50: curve of first compound; for viability, T/C: stronger effect = lower value
Procedure, shortened: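 Viability of tumor cells grown as complex spheroids with endothelial and stromal cells, exposed to drug combinations. Top concentration at or near clinical Cmax (else 10 microM), diluted in half-log increments.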

[1] = second compound 0.0316 µM, first compound 0.0316 µM
[2] = second compound 0.0316 µM, first compound 0.1 µM
[3] = second compound 0.0316 µM, first compound 0.316 µM
[4] = second compound 0.0316 µM, first compound 1 µM
[5] = second compound 0.0316 µM, first compound 3.16 µM
[6] = second compound 0.0316 µM, first compound 10 µM
[7] = second compound 0.1 µM, first compound 0.0316 µM
[8] = second compound 0.1 µM, first compound 0.1 µM
[9] = second compound 0.1 µM, first compound 0.316 µM
[10] = second compound 0.1 µM, first compound 1 µM
[11] = second compound 0.1 µM, first compound 3.16 µM
[12] = second compound 0.1 µM, first compound 10 µM
[13] = second compound 0.316 µM, first compound 0.0316 µM
[14] = second compound 0.316 µM, first compound 0.1 µM
[15] = second compound 0.316 µM, first compound 0.316 µM
[16] = second compound 0.316 µM, first compound 1 µM
[17] = second compound 0.316 µM, first compound 3.16 µM
[18] = second compound 0.316 µM, first compound 10 µM
[19] = second compound 1 µM, first compound 0.0316 µM
[20] = second compound 1 µM, first compound 0.1 µM
[21] = second compound 1 µM, first compound 0.316 µM
[22] = second compound 1 µM, first compound 1 µM
[23] = second compound 1 µM, first compound 3.16 µM
[24] = second compound 1 µM, first compound 10 µM
[25] = second compound 3.16 µM, first compound 0.0316 µM
[26] = second compound 3.16 µM, first compound 0.1 µM
[27] = second compound 3.16 µM, first compound 0.316 µM
[28] = second compound 3.16 µM, first compound 1 µM
[29] = second compound 3.16 µM, first compound 3.16 µM
[30] = second compound 3.16 µM, first compound 10 µM
[31] = second compound 10 µM, first compound 0.0316 µM
[32] = second compound 10 µM, first compound 0.1 µM
[33] = second compound 10 µM, first compound 0.316 µM
[34] = second compound 10 µM, first compound 1 µM
[35] = second compound 10 µM, first compound 3.16 µM
[36] = second compound 10 µM, first compound 10 µM
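Also: spheroids exposed to the agents for 7 days.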
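For viability, T/C in this document: 100% = DMSO vehicle control viability.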

O=C(c1cc(Cc2n[nH]c(=O)c3ccccc23)ccc1F)N1CCN(C(=O)C2CC2)CC1 + Cc1cnc(CNC(=O)c2c(=O)c3ccc(N4CCCN(C)CC4)nc3n3c2sc2ccccc23)cn1
IC50 (second compound 0.0316 µM): > 10000 nM | IC50 (second compound 0.1 µM): > 10000 nM | IC50 (second compound 0.316 µM): > 10000 nM | IC50 (second compound 1 µM): > 10000 nM | IC50 (second compound 3.16 µM): > 10000 nM | IC50 (second compound 10 µM): > 10000 nM | viability, T/C [1]: 95.5% | viability, T/C [2]: 87.9% | viability, T/C [3]: 88.9% | viability, T/C [4]: 85.1% | viability, T/C [5]: 82.4% | viability, T/C [6]: 102% | viability, T/C [7]: 92.3% | viability, T/C [8]: 92.5% | viability, T/C [9]: 82.1% | viability, T/C [10]: 72.5% | viability, T/C [11]: 85.8% | viability, T/C [12]: 68.9% | viability, T/C [13]: 82% | viability, T/C [14]: 96% | viability, T/C [15]: 90.1% | viability, T/C [16]: 99.8% | viability, T/C [17]: 95.5% | viability, T/C [18]: 93.8% | viability, T/C [19]: 85.6% | viability, T/C [20]: 106% | viability, T/C [21]: 105% | viability, T/C [22]: 89.5% | viability, T/C [23]: 97% | viability, T/C [24]: 108% | viability, T/C [25]: 117% | viability, T/C [26]: 108% | viability, T/C [27]: 95.3% | viability, T/C [28]: 84.4% | viability, T/C [29]: 99% | viability, T/C [30]: 89.5% | viability, T/C [31]: 103% | viability, T/C [32]: 95.2% | viability, T/C [33]: 106% | viability, T/C [34]: 116% | viability, T/C [35]: 95.9% | viability, T/C [36]: 101%

COc1ccc([C@@H](O)c2cc(-c3ncnc4cc(N5CCOCC5)ccc34)c(F)cc2Cl)nn1 + Cc1cnc(CNC(=O)c2c(=O)c3ccc(N4CCCN(C)CC4)nc3n3c2sc2ccccc23)cn1
IC50 (second compound 0.0316 µM): > 10000 nM | IC50 (second compound 0.1 µM): > 10000 nM | IC50 (second compound 0.316 µM): > 10000 nM | IC50 (second compound 1 µM): 9860 nM | IC50 (second compound 3.16 µM): > 10000 nM | IC50 (second compound 10 µM): > 10000 nM | viability, T/C [1]: 102% | viability, T/C [2]: 93.6% | viability, T/C [3]: 100% | viability, T/C [4]: 63.3% | viability, T/C [5]: 81.1% | viability, T/C [6]: 63.9% | viability, T/C [7]: 97.5% | viability, T/C [8]: 94.7% | viability, T/C [9]: 73.9% | viability, T/C [10]: 84.7% | viability, T/C [11]: 77.2% | viability, T/C [12]: 86.9% | viability, T/C [13]: 87.3% | viability, T/C [14]: 106% | viability, T/C [15]: 107% | viability, T/C [16]: 94.8% | viability, T/C [17]: 113% | viability, T/C [18]: 65.2% | viability, T/C [19]: 82.3% | viability, T/C [20]: 87.5% | viability, T/C [21]: 89.3% | viability, T/C [22]: 87.8% | viability, T/C [23]: 98.1% | viability, T/C [24]: 49.5% | viability, T/C [25]: 81.7% | viability, T/C [26]: 88.8% | viability, T/C [27]: 98.1% | viability, T/C [28]: 107% | viability, T/C [29]: 98.2% | viability, T/C [30]: 71.2% | viability, T/C [31]: 85.5% | viability, T/C [32]: 75.9% | viability, T/C [33]: 86.3% | viability, T/C [34]: 117% | viability, T/C [35]: 86.9% | viability, T/C [36]: 72.8%

CCc1c2c(nc3ccc(O)cc13)-c1cc3c(c(=O)n1C2)COC(=O)[C@]3(O)CC + Cc1[nH]c2ccc(F)cc2c1-c1nc2c3cccnc3c3ncccc3c2[nH]1
IC50 (second compound 0.0316 µM): 11.9 nM | IC50 (second compound 0.1 µM): 9.18 nM | IC50 (second compound 0.316 µM): 11.9 nM | IC50 (second compound 1 µM): 8.52 nM | IC50 (second compound 3.16 µM): 10.7 nM | IC50 (second compound 10 µM): 6.48 nM | viability, T/C (second compound 0.0316 µM, first compound 0.000999 µM): 84.3% | viability, T/C (second compound 0.0316 µM, first compound 0.00316 µM): 94.4% | viability, T/C (second compound 0.0316 µM, first compound 0.00999 µM): 54.2% | viability, T/C [1]: 16.6% | viability, T/C (second compound 0.0316 µM, first compound 0.0999 µM): 7.8% | viability, T/C [3]: 2.95% | viability, T/C (second compound 0.1 µM, first compound 0.000999 µM): 75% | viability, T/C (second compound 0.1 µM, first compound 0.00316 µM): 74.8% | viability, T/C (second compound 0.1 µM, first compound 0.00999 µM): 45.2% | viability, T/C [7]: 22% | viability, T/C (second compound 0.1 µM, first compound 0.0999 µM): 5.55% | viability, T/C [9]: 2.19% | viability, T/C (second compound 0.316 µM, first compound 0.000999 µM): 90.5% | viability, T/C (second compound 0.316 µM, first compound 0.00316 µM): 94.3% | viability, T/C (second compound 0.316 µM, first compound 0.00999 µM): 53.3% | viability, T/C [13]: 19.2% | viability, T/C (second compound 0.316 µM, first compound 0.0999 µM): 7.44% | viability, T/C [15]: 2.71% | viability, T/C (second compound 1 µM, first compound 0.000999 µM): 81.9% | viability, T/C (second compound 1 µM, first compound 0.00316 µM): 76.6% | viability, T/C (second compound 1 µM, first compound 0.00999 µM): 44.4% | viability, T/C [19]: 19.6% | viability, T/C (second compound 1 µM, first compound 0.0999 µM): 6.99% | viability, T/C [21]: 7.31% | viability, T/C (second compound 3.16 µM, first compound 0.000999 µM): 69% | viability, T/C (second compound 3.16 µM, first compound 0.00316 µM): 56.6% | viability, T/C (second compound 3.16 µM, first compound 0.00999 µM): 54% | viability, T/C [25]: 22.1% | viability, T/C (second compound 3.16 µM, first compound 0.0999 µM): 7.42% | viability, T/C [27]: 2.8% | viability, T/C (second compound 10 µM, first compound 0.000999 µM): 69.2% | viability, T/C (second compound 10 µM, first compound 0.00316 µM): 52.8% | viability, T/C (second compound 10 µM, first compound 0.00999 µM): 48% | viability, T/C [31]: 17.1% | viability, T/C (second compound 10 µM, first compound 0.0999 µM): 3.72% | viability, T/C [33]: 2.19%

C#Cc1c(F)ccc2cc(O)cc(-c3ncc4c(N5CC6CCC(C5)N6)nc(OCC56CCCN5CC(F)C6)nc4c3F)c12 (stereo not drawn) + Cc1[nH]c2ccc(F)cc2c1-c1nc2c3cccnc3c3ncccc3c2[nH]1
IC50 (second compound 0.0316 µM): 1870 nM | IC50 (second compound 0.1 µM): 1900 nM | IC50 (second compound 0.316 µM): 1840 nM | IC50 (second compound 1 µM): 1290 nM | IC50 (second compound 3.16 µM): 563 nM | IC50 (second compound 10 µM): 460 nM | viability, T/C [1]: 87.5% | viability, T/C [2]: 90.5% | viability, T/C [3]: 97% | viability, T/C [4]: 71.1% | viability, T/C [5]: 29.3% | viability, T/C [6]: 35.4% | viability, T/C [7]: 98.8% | viability, T/C [8]: 103% | viability, T/C [9]: 99.6% | viability, T/C [10]: 74.2% | viability, T/C [11]: 30.9% | viability, T/C [12]: 26.6% | viability, T/C [13]: 91.6% | viability, T/C [14]: 87.7% | viability, T/C [15]: 85.4% | viability, T/C [16]: 63.3% | viability, T/C [17]: 35.4% | viability, T/C [18]: 41% | viability, T/C [19]: 95.9% | viability, T/C [20]: 88.3% | viability, T/C [21]: 79.6% | viability, T/C [22]: 56.9% | viability, T/C [23]: 29.5% | viability, T/C [24]: 38.2% | viability, T/C [25]: 89.4% | viability, T/C [26]: 73.7% | viability, T/C [27]: 62% | viability, T/C [28]: 41% | viability, T/C [29]: 21.5% | viability, T/C [30]: 15.2% | viability, T/C [31]: 70.7% | viability, T/C [32]: 74.1% | viability, T/C [33]: 60.6% | viability, T/C [34]: 26.9% | viability, T/C [35]: 10.2% | viability, T/C [36]: 11.8%
